# In BindingDB's records for doi:10.1021/jm980290i (Research Triangle Institute, 1998):
# Test: Inhibition of [35S]GTP-gamma-S, binding in guinea pig caudate stimulated by SNC80 (Opioid receptor delta 1)
compound,measurement,value
C[C@H]1C2CCCC1(c1cccc(O)c1)CCN2CCc1ccccc1 (stereo partly drawn) [3-((R)-9-Methyl-2-phenethyl-2-aza-bicyclo[3.3.1]non-5-yl)-phenol],Ki,13 nM
